In patent US20080269266A1, “NOVEL COMPOUNDS 747” (ASTRAZENECA AB, priority 2007, published 2008):

Columns and labels:
[1] = Solubility in 0.1 M phosphate buffer pH 7.4; type: physicochemical; settings: pH 7.4, 24 h, 25° C.
Procedure: Solubility values are determined by agitation of compounds in 0.1 M phosphate buffer at pH 7.4 for 24 h at 25° C. The supernatant is separated from undissolved material by double centrifugation and subsequently analyzed and quantified against a standard of known concentration in DMSO using generic HPLC-UV methodology coupled with mass spectral peak identification (J. Med. Chem., 2006, 49(23), 6672-6682).

[2] = biological target: T1, human cytochrome P450 (CYP) 2C19 (Homo sapiens, UniProt P33261); assay: Cytochrome P450 Inhibition Assay 2C19; type: in vitro ADME; settings: read-out: IC50 range, CYP 2C19
T1 construct: made in house; host or cells: yeast cell lines (microsomal fractions)
Procedure: The inhibitory potential (IC50) of test compounds against 5 human cytochrome P450 (CYP) isoforms (1A2, 2C9, 2C19, 3A4 and 2D6) was assessed using an automated fluorescent end point in vitro assay modified from Crespi (Crespi and Stresser, 2000). Microsomal subcellular fractions prepared from Yeast cell lines expressing each human CYP isoform were used as an enzyme source in this assay. The activity of the 5 major human CYPs was determined from the biotransformation of a number of coumarin substrates to fluorescent metabolites, in the presence of NADPH. […] Stock solutions of each CYP, with its respective substrate, were prepared in phosphate buffer pH7.4 (see Table 1) and 178 μl was added to the well of a black solid, flat bottom, 300 μl 96 well is microtitre plate (Corning Costar). […] After pre-incubating at 37° C. for 5 min the reactions were started with addition of NADPH (20 μl, concentration shown in Table 1). The final solvent content in each incubation was <=2% (1% from the test compound and a maximum of 1% from the substrate). The appropriate solvent controls and substrate blanks were included in each experiment to assess control activity and identify any inherent fluorescence due to the test compounds. In addition, known inhibitors of each CYP were included as positive controls (see Table 3 for inhibitor concentrations and expected IC50 ranges). The reactions were stopped at defined timepoints (see Table 1) by quenching with 100 μl of solvent (acetonitrile:0.5M Tris buffer 80:20 v/v). The plates were read on a fluorimeter (Spectrafluor Plus) at the appropriate excitation and emission wavelengths (listed in Table 2) and the percent activity, corrected for control, was plotted against the test compound concentration.

T1 sequence (P33261 whole entry): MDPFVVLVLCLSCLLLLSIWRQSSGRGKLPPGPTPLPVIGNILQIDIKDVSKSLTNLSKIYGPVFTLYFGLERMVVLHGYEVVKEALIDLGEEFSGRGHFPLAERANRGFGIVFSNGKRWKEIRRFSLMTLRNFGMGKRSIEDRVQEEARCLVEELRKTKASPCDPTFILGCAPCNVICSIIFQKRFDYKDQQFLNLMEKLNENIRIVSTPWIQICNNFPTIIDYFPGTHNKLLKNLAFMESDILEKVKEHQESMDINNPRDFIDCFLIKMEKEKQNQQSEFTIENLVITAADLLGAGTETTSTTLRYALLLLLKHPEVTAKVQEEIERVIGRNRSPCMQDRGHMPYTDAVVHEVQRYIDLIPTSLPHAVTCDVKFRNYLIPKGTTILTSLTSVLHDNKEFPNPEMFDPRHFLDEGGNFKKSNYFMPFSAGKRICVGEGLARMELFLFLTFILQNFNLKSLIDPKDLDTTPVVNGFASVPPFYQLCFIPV

Row | Compound | Solubility [1] | IC50 [2] [µM]
1 | COc1cc(Nc2cc(C)n[nH]2)nc(N2CCC[C@H]2c2cc(-c3ncccn3)no2)n1 [mixture of Forms 1 and 3, (S)-6-Methoxy-2-{2-[3-(pyrimid-2-yl)isoxazol-5-yl]pyrrolidin-1-yl}-4-(5-methyl-1H-pyrazol-3-ylamino)pyrimidine] | around 18 μM | –
2 | COc1ccc2[nH]c([S+]([O-])Cc3ncc(C)c(OC)c3C)nc2c1 (centres unmarked) [Omeprazole] | – | 1.5 to 4.6
